Results reported in patent publication US9573953B2, “Heteroaromatic compounds as PI3 kinase modulators and methods of use” (CALITOR SCIENCES, LLC, priority 2013, dated 2017).
Read-outs that look alike come from different tables or passages of the source.

Experiments:
PI3K (p120γ) (h) = target: T1, PI3K (p120γ) (h) (Homo sapiens, UniProt P48736); assay: PI3K (p120γ) (h) non-radioactive (HTRF) assay; format: biochemical
T1 construct: purchased Millipore UK Ltd (assays run there as a service)
Experimental: PI3K (p120γ) (h) [Non-Radioactive Assay]
(§1) PI3K (p120γ) (h) is incubated in assay buffer containing 10 μM phosphatidylinositol-4,5-bisphosphate and MgATP (concentration as required). The reaction is initiated by the addition of the MgATP mix. After incubation for 30 minutes at room temperature, the reaction is stopped by the addition of stop solution containing EDTA and biotinylated phosphatidylinositol-3,4,5-trisphosphate. Finally, detection buffer is added, which contains europium-labelled anti-GST monoclonal antibody, GST-tagged GRP1 PH domain and streptavidin-allophycocyanin. The plate is then read in time-resolved fluorescence mode and the homogenous time-resolved fluorescence (HTRF) signal is determined according to the formula HTRF=10000×(Em665 nm/Em620 nm).
(§2) The kinase assays described herein were performed at Millipore UK Ltd, Dundee Technology Park, Dundee DD2 1SW, UK.

PI3K p110β/p85α (h) = target: T2, PI3K p110β/p85α (h) (Homo sapiens, UniProt P42338); assay: PI3K p110β/p85α (h) non-radioactive (HTRF) assay; format: biochemical
T2 construct: purchased Millipore UK Ltd (assays run there as a service)
Experimental: PI3K p110β/p85α (h) [Non-Radioactive Assay]
as §1, with “(p110β/p85α)” for “(p120γ)”
as §2

PI3K (p110δ/p85α) (h) = target: T3, PI3K (p110δ/p85α) (h) (Homo sapiens, UniProt O00329); assay: PI3K (p110δ/p85α) (h) non-radioactive (HTRF) assay; format: biochemical
T3 construct: purchased Millipore UK Ltd (assays run there as a service)
Experimental: PI3K (p110δ/p85α) (h) [Non-Radioactive Assay]
as §1, with “(p110δ/p85α)” for “(p120γ)”
as §2

[1] = Compound stability in rat liver microsomes; format: in vitro ADME; details: for half-life at 5 μM / CLint scaled at 5 μM: pH 7.4; for half-life at 5 μM / T1/2: rat liver microsomes 0.5 mg protein/mL, compound 5 μM, NADPH, 37° C.; for CLint scaled at 5 μM: rat liver microsomes, in vivo CLint extrapolated
Experimental: (§3) Human or rat liver microsomes incubations were conducted in duplicate in polypropylene tubes. The typical incubation mixtures consisted of human or rat liver microsomes (0.5 mg protein/mL), compounds of interest (5 μM) and NADPH (1.0 mM) in a total volume of 200 μL potassium phosphate buffer (PBS, 100 mM, pH=7.4). Compounds were dissolved in DMSO and diluted with PBS such that the final concentration of DMSO was 0.05%. The enzymatic reactions were commenced with the addition of protein after a 3-min preincubation and incubated in a water bath open to the air at 37° C. Reactions were terminated at various time points (0, 5, 10, 15, 30, 60 min) by adding equal volume of ice-cold acetonitrile. The samples were stored at −80° C. until LC/MS/MS assays.
(§4) The concentrations of compounds in the incubation mixtures of human or rat liver microsomes were determined by a LC/MS/MS method. The ranges of the linearity in the concentration range were determined for each tested compounds.
(§5) A parallel incubation was performed using denatured microsomes as the negative control, and reactions were terminated at various time points (0, 15, 60 min) after incubation at 37° C.
(§6) Dextromethorphan (70 μM) was selected as the positive control, and reactions were terminated at various time points (0, 5, 10, 15, 30, 60 min) after incubation at 37° C. Both positive and negative control samples were included in each assay to ensure the integrity of the microsomal incubation system.
(§7) The concentrations of compounds in human or rat liver microsome incubations were plotted as a percentage of the relevant zero time point control for each reaction. The in vivo CLint were extrapolated (ref.: Naritomi Y, Terashita S, Kimura S, Suzuki A, Kagayama A, Sugiyama Y. “Prediction of human hepatic clearance from in vivo animal experiments and in vitro metabolic studies with liver microsomes from animals and humans”, Drug Metabolism and Disposition, 2001, 29, 1316-1324).

PI3K p110α/p85α (h) = target: T4, PI3K p110α/p85α (h) (Homo sapiens, UniProt P42336); assay: PI3K p110α/p85α (h) non-radioactive (HTRF) assay; format: biochemical
T4 construct: purchased Millipore UK Ltd (assays run there as a service)
Experimental: PI3K p110α/p85α (h) [Non-Radioactive Assay]
as §1, with “p110α/p85α” for “(p120γ)”, “phosphatidylinositol 4,5-bisphosphate” for “phosphatidylinositol-4,5-bisphosphate”, “ATP solution.” for “MgATP mix.”, “streptavidin allophycocyanin.” for “streptavidin-allophycocyanin.”
as §2

[2] = Pharmacokinetic profiles in rats; format: in vivo; details: for F: oral dose generally 5 or 10 mg/kg; for Cl/F / AUC(0-t) / half-life / Vd: iv dosing; for AUC(0-t) / half-life / Vd: rat, plasma; for Vd: read-out: Vss
Experimental: The compounds disclosed herein are assessed in pharmacokinetic studies in mice, rats, dogs or monkeys. The compounds are administered as a water solution, 2% HPMC+1% TWEEN®80 in water solution, 5% DMSO+5% solutol in saline, 4% MC suspension or capsule. For the intravenous administration, the animals are generally given at 1 or 2 mg/kg dose. For the oral (p.o.) dosing, mice and rats are generally given 5 or 10 mg/kg dose, and dogs and monkeys are generally given 10 mg/kg dose. The blood samples (0.3 mL) are drawn at 0.25, 0.5, 1.0, 2.0, 3.0, 4.0, 6.0, 8.0, 12 and 24 h time points or 0.083, 0.25, 0.5, 1.0, 2.0, 4.0, 6.0, 8.0 and 24 h time points and centrifuged at 3,000 or 4000 rpm for 2 to 10 min. The plasma solutions are collected and stored at −20° C. or −70° C. until analyzed by LC/MS/MS as described above.

[3] = Compound stability in human liver microsomes; format: in vitro ADME; details: for half-life at 5 μM / CLint scaled at 5 μM: pH 7.4; for CLint scaled at 5 μM: human liver microsomes, in vivo CLint extrapolated
Experimental: as §3, §4, §5, §6, §7

mTOR (h) = target: T5, mTOR (h) (Homo sapiens, UniProt P42345); assay: mTOR (h) kinase assay; format: biochemical
T5 construct: purchased Millipore UK Ltd (assays run there as a service)
Experimental: mTOR (h) is incubated with 50 mM HEPES pH 7.5, 1 mM EDTA, 0.01% TWEEN®20, 2 mg/mL substrate, 3 mM Manganese Chloride and [γ-^33P-ATP] (specific activity approx. 500 cpm/pmol, concentration as required). The reaction is initiated by the addition of the MnATP mix. After incubation for 40 minutes at room temperature, the reaction is stopped by the addition of 3% phosphoric acid solution. Aliquote of the reaction (10 μL) is then spotted onto a P30 filtermat and washed three times for 5 minutes in 75 mM phosphoric acid and once in methanol prior to drying and scintillation counting.
as §2

[4] = human liver microsomes 0.5 mg protein/mL, compound 5 μM, NADPH, 37° C.

T4 sequence (P42336 whole entry): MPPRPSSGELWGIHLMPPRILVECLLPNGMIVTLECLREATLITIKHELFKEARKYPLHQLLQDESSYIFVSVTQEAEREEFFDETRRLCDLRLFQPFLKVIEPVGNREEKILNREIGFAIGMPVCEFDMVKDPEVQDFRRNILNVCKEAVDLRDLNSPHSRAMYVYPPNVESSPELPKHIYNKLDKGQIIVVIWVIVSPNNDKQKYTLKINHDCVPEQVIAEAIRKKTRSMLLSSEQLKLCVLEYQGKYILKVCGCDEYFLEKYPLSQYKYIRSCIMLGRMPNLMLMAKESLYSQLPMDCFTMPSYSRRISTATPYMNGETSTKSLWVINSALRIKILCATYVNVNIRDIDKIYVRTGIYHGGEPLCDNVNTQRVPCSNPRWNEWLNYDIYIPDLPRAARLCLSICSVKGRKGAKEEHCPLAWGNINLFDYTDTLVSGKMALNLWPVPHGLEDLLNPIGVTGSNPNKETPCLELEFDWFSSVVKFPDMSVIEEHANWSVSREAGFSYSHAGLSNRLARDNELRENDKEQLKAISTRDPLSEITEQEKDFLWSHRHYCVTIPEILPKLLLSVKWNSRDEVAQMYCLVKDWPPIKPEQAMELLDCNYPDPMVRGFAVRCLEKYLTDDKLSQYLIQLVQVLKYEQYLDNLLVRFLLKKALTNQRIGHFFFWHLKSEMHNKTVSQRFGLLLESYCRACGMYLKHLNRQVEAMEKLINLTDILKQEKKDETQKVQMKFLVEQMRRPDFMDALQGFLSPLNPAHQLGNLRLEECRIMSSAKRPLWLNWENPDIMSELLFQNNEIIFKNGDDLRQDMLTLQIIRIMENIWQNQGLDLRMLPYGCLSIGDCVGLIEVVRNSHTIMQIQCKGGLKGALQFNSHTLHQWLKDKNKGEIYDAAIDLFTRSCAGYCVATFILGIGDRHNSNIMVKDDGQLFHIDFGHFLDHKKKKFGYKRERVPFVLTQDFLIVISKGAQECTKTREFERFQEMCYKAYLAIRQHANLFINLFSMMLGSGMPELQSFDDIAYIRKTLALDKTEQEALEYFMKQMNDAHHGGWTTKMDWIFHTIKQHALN
T4 sequence (P27986 whole entry partner): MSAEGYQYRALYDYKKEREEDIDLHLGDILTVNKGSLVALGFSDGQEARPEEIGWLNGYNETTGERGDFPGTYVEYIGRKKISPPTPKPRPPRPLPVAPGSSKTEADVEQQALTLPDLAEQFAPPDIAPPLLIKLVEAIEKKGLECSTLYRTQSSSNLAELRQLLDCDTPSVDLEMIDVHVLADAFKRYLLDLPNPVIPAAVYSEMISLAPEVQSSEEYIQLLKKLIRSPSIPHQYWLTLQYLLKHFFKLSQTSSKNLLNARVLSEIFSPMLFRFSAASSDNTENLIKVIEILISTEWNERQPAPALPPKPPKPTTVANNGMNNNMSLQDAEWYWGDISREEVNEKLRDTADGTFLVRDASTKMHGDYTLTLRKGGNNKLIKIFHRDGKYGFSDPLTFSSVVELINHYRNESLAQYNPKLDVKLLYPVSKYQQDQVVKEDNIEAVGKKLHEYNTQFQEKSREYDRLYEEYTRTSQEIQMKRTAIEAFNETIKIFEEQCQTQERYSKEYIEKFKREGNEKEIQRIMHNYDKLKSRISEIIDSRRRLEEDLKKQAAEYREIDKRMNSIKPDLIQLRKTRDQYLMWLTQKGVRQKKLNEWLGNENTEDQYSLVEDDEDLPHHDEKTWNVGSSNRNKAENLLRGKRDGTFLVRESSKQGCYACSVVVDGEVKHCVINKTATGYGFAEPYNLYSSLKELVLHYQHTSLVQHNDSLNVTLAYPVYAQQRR
T1 sequence (P48736 whole entry): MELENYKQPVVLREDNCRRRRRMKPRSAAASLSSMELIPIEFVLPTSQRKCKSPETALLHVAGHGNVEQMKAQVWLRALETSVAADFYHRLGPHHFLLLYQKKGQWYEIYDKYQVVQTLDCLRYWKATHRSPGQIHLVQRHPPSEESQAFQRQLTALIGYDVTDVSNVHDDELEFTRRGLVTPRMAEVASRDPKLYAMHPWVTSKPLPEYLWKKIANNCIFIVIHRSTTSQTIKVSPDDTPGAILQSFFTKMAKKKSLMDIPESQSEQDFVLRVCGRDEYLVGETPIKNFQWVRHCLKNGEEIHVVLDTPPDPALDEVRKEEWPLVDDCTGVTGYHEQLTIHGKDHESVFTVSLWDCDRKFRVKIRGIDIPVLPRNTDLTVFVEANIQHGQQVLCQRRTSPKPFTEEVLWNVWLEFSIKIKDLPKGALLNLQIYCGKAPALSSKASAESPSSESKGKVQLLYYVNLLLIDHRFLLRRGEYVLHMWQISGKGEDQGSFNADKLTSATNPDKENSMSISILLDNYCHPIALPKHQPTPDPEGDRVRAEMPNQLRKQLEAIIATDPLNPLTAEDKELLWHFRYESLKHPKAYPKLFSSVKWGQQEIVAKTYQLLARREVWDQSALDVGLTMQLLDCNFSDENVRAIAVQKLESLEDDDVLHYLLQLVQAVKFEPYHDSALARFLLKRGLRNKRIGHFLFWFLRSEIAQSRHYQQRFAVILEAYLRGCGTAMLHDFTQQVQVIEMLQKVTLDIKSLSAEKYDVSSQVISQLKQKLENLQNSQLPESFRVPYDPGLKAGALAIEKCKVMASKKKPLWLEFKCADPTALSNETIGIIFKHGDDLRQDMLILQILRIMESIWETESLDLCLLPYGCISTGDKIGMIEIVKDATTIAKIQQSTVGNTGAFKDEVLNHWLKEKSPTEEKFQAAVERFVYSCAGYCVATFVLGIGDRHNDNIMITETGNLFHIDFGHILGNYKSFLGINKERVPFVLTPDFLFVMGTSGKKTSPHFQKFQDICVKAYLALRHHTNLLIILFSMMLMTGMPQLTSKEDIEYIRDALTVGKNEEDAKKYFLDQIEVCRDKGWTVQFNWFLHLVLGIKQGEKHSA
T3 sequence (O00329 whole entry): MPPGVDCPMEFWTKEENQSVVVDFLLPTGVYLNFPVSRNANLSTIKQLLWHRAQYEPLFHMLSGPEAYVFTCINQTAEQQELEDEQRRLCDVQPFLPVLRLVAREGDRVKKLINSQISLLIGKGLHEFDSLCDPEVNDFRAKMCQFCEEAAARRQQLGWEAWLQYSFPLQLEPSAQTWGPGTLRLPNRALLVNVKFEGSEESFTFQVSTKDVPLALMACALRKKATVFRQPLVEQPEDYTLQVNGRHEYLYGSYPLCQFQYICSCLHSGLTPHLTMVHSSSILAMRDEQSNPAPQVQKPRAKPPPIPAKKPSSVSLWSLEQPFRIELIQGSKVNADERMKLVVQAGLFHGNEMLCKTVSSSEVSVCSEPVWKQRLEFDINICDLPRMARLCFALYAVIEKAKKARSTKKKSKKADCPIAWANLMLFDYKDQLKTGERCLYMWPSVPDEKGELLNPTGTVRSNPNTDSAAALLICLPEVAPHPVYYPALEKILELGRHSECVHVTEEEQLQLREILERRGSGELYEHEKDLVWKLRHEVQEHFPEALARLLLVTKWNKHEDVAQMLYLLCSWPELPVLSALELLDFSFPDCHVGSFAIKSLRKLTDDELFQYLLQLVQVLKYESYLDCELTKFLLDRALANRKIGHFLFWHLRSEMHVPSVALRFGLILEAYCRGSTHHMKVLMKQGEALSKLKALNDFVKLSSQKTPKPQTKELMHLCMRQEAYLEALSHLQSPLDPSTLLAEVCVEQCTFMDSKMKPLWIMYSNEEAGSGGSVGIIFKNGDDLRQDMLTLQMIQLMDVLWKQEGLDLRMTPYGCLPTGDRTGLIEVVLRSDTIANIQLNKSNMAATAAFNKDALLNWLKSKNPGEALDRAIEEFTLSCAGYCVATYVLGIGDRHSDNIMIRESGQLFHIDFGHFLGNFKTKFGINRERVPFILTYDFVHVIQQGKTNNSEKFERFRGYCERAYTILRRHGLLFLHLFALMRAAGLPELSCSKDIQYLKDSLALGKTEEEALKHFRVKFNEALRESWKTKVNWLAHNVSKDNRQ
T3 sequence (P27986 whole entry partner): as the sequence (P27986 whole entry partner) above
T2 sequence (P42338 whole entry): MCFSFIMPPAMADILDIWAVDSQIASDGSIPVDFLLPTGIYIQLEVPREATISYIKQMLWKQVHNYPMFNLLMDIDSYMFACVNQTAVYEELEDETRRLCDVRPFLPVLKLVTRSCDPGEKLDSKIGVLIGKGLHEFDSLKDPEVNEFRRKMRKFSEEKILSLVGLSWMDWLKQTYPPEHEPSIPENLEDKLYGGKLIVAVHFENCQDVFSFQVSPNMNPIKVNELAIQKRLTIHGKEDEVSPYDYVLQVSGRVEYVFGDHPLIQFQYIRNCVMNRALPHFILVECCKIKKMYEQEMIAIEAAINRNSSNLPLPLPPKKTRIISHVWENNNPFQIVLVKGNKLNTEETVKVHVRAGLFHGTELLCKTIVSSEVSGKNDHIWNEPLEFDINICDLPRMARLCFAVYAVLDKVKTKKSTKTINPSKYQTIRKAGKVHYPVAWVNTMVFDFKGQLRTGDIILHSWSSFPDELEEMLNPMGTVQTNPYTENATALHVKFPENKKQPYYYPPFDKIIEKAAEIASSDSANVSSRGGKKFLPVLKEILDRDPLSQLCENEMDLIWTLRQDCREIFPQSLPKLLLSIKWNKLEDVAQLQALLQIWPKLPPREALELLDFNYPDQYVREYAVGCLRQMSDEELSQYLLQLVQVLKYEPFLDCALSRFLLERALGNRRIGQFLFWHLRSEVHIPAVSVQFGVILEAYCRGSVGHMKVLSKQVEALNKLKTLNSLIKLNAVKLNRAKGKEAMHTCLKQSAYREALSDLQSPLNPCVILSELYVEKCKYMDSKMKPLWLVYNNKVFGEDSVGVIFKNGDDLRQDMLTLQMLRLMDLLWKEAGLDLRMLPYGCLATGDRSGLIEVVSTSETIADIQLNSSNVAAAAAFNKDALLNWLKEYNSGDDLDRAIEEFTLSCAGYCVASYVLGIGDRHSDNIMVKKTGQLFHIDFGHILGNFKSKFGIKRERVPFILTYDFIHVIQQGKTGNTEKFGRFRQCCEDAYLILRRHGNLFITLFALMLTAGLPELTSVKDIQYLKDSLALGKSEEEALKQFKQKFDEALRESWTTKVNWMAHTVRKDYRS
T2 sequence (P27986 whole entry partner): as the sequence (P27986 whole entry partner) above

| Structure (SMILES) | half-life at 5 μM [1] | CLint scaled at 5 μM [1] | half-life at 5 μM [3, 4] | CLint scaled at 5 μM [3] | T1/2 [1] | F ([2]; iv dose 1 mg/kg) | Cl/F ([2]; 1 mg/kg) | AUC(0-t) ([2]; 1 mg/kg) | half-life ([2]; 1 mg/kg) | Vd ([2]; 1 mg/kg) | other results |
| --- | --- | --- | --- | --- | --- | --- | --- | --- | --- | --- | --- |
| COc1ncc(-c2ccn3ncc(C#CC(C)(C)O)c3c2)cc1NS(=O)(=O)c1ccc(F)cc1F [Ex. 8, 2,4-difluoro-N-(5-(3-(3-hydroxy-3-methylbut-1-yn-1-yl)pyrazolo[1,5-a]pyridin-5-yl)-2-methoxypyridin-3-yl)benzenesulfonamide] | 21 h | 1.97 mL/min/kg | 130 h | 0.22 mL/min/kg |  | 103.40% | 0.33 mL/min/kg | 41800 ng·h/mL | 10.8 h | 0.28 L/kg |  |
| COc1ncc(-c2ccn3ncc(C#N)c3c2)cc1NS(=O)(=O)CC(F)(F)F [Ex. 10, N-(5-(3-cyanopyrazolo[1,5-a]pyridin-5-yl)-2-methoxypyridin-3-yl)-2,2,2-trifluoroethanesulfonamide] |  |  | 20.4 h | 2.03 mL/min/kg | ∞ | 112.95% | 12.7 mL/min/kg | 1240 ng·h/mL | 2.74 h | 1.72 L/kg |  |

Second part, led by results:

| half-life at 5 μM [1] | CLint scaled at 5 μM [1] | half-life at 5 μM [3, 4] | CLint scaled at 5 μM [3] | T1/2 [1] | F ([2]; iv dose 1 mg/kg) | Cl/F ([2]; 1 mg/kg) | AUC(0-t) ([2]; 1 mg/kg) | half-life ([2]; 1 mg/kg) | Vd ([2]; 1 mg/kg) | Structure (SMILES) | other results |
| --- | --- | --- | --- | --- | --- | --- | --- | --- | --- | --- | --- |
| 3.61 h | 11.5 mL/min/kg | 5.05 h | 5.74 mL/min/kg |  |  |  |  |  |  | COc1ncc(-c2ccn3ncc(C#CC(C)O)c3n2)cc1NS(=O)(=O)c1ccc(F)cc1F (centres unmarked) [Ex. 5, 2,4-difluoro-N-(5-(3-(3-hydroxybut-1-yn-1-yl)pyrazolo[1,5-a]pyrimidin-5-yl)-2-methoxypyridin-3-yl)benzenesulfonamide] | IC50 (PI3K (p120γ) (h)): 6 nM; IC50 (PI3K p110β/p85α (h)): 75 nM; IC50 (PI3K (p110δ/p85α) (h)): 1 nM; IC50 (PI3K p110α/p85α (h)): 3 nM; F ([2]; iv dose 2 mg/kg): 96.20%; Cl/F ([2]; 2 mg/kg): 0.83 mL/min/kg; AUC(0-t) ([2]; 2 mg/kg): 35200 ng·h/mL; half-life ([2]; 2 mg/kg): 3 h; Vd ([2]; 2 mg/kg): 0.2 L/kg; IC50 (mTOR (h)): 7 nM |
|  |  |  |  | ∞ | 50.80% | 0.33 mL/min/kg | 40900 ng·h/mL | 11 h | 0.24 L/kg | COc1ncc(-c2ccn3ncc(C#CC(C)(C)O)c3n2)cc1NS(=O)(=O)c1ccc(F)cc1F [Ex. 6, 2,4-difluoro-N-(5-(3-(3-hydroxy-3-methylbut-1-yn-1-yl)pyrazolo[1,5-a]pyrimidin-5-yl)-2-methoxypyridin-3-yl)benzenesulfonamide] | T1/2 [3, 4]: ∞ |
| 1.54 h | 26.9 mL/min/kg | 55.7 h | 0.52 mL/min/kg |  | 80.10% | 3.17 mL/min/kg | 5330 ng·h/mL | 3.94 h | 0.63 L/kg | CC#Cc1cnn2ccc(-c3cnc(OC)c(NS(=O)(=O)c4ccc(F)cc4F)c3)nc12 [Ex. 7, 2,4-difluoro-N-(2-methoxy-5-(3-(prop-1-yn-1-yl)pyrazolo[1,5-a]pyrimidin-5-yl)pyridin-3-yl)benzenesulfonamide] |  |
